Consider 28 compounds from PMC6627609, “Targeting Quorum Sensing: High-Throughput Screening to Identify Novel LsrK Inhibitors” (International Journal of Molecular Sciences, 2019).

Counter-ions that a name gives are not always drawn.

For the first experiment, the target named is LsrK (Salmonella typhimurium, UniProt Q8ZKQ6). In words: biochemical.
Chain of LsrK (Q8ZKQ6 whole entry): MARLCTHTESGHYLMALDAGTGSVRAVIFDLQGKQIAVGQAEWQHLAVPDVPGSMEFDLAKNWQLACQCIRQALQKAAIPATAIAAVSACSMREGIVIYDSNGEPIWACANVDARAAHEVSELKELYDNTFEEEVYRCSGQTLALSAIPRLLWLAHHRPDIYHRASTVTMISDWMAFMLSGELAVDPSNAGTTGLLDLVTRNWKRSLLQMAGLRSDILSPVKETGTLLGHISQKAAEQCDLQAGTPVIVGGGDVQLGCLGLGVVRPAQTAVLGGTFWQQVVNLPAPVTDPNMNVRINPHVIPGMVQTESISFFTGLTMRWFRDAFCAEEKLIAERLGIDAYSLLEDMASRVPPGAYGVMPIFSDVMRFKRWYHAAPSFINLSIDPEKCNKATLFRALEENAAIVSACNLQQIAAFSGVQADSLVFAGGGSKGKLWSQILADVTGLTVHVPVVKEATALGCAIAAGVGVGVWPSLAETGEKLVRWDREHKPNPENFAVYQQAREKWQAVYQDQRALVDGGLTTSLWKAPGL
Settings: not given
The format is biochemical, S. typhimurium.
On to `CN(C)c1ccc(C(=C2C=CC(=[N+](C)C)C=C2)c2ccc(N(C)C)cc2)cc1` [GENTIAN VIOLET], for which the inhibition at 50 µM stood at 11%.

Regarding `Cc1ccc(S(=O)(=O)NC(=O)NN2CC3CCCC3C2)cc1` (stereo not shown) [GLICLAZIDE], the inhibition at 50 µM was determined as 1%.

Turning to `Cc1cnc(C(=O)NCCc2ccc(S(=O)(=O)NC(=O)NC3CCCCC3)cc2)cn1` [GLIPIZIDE], the inhibition at 50 µM is 1%.

On to `O=C1O[C@H](CO)[C@@H](O)[C@H](O)[C@H]1O` [GLUCONOLACTONE], for which the inhibition at 50 µM came to 0%.

As to `N[C@H]1C(O)O[C@H](CO)[C@@H](O)[C@@H]1O` (stereo partly shown) [GLUCOSAMINE HYDROCHLORIDE], the inhibition at 50 µM turned out to be 1%.

Turning to `N[C@@H](CCC(=O)N[C@@H](CS)C(=O)NCC(=O)O)C(=O)O` [GLUTATHIONE], the inhibition at 50 µM was determined as 1%.

Take `C[C@H](CCC(=O)NCC(=O)O)[C@H]1CC[C@H]2[C@@H]3[C@H](O)C[C@@H]4C[C@H](O)CC[C@]4(C)[C@H]3C[C@H](O)[C@]12C` [GLYCOCHOLIC ACID]: the inhibition at 50 µM came to 1%.

On to `C[N+]1(C)CCC(OC(=O)C(O)(c2ccccc2)C2CCCC2)C1` (stereo not shown) [GLYCOPYRROLATE], for which the inhibition at 50 µM came out at 0%.

For `N[C@@H](C(=O)O)[C@@H](O)[C@H](O)[C@H](O)CO` [GL[…]], the inhibition at 50 µM is 1%.

`O=c1c(O)c(-c2ccc(O)c(O)c2)oc2c(O)c(O)cc(O)c12` [GOSSYPETIN]: the inhibition at 50 µM was 115%.

Regarding `Cc1cc2c(C(C)C)c(O)c(O)c(C=O)c2c(O)c1-c1c(C)cc2c(C(C)C)c(O)c(O)c(C=O)c2c1O` [GOSSYPOL], the inhibition at 50 µM is 83%.

For the compound `COC1=CC(=O)C[C@@H](C)[C@]12Oc1c(Cl)c(OC)cc(OC)c1C2=O` [GRISEOFULVIN], the inhibition at 50 µM came to 1%.

Take `COc1ccccc1OCC(O)CO` (stereo not shown) [GUAIFENESIN]: the inhibition at 50 µM is 0%.

As to `N=C(N)N/N=C/c1c(Cl)cccc1Cl` [GUANABENZ ACETATE], the inhibition at 50 µM turned out to be 0%.

`CC1=C(CCC(=O)O)c2cc3[nH]c(cc4nc(cc5[nH]c(cc1n2)c(C)c5C(C)O)C(C)=C4C(C)O)c(C)c3CCC(=O)O` (stereo not shown) [HAEMATOPORPHYRIN]: the inhibition at 50 µM was determined as 55%.

Turning to `CC1(C)O[C@@H]2C[C@H]3[C@@H]4CCC5=CC(=O)CC[C@]5(C)[C@@]4(F)[C@@H](O)C[C@]3(C)[C@]2(C(=O)CCl)O1` [HALCINONIDE], the inhibition at 50 µM turned out to be 0%.

Take `CC1=NCCc2c1[nH]c1cc(O)ccc21` [HARMALOL HYDROCHLORIDE]: the inhibition at 50 µM came out at 4%.

For the compound `Cc1nccc2c1[nH]c1cc(O)ccc12` [HARMOL HYDROCHLORIDE], the inhibition at 50 µM was found to be 3%.

As to `C=C1C(=O)O[C@@H]2C[C@@]3(C)CCC[C@H](C)C3=C[C@H]12` [HELENINE], the inhibition at 50 µM stood at 2%.

On to `O=C1C=C2CC3(O)COc4c(ccc(O)c4O)C3=C2C=C1O` (stereo not shown) [HEMATEIN], for which the inhibition at 50 µM was 107%.

As to `COc1ccc([C@@H]2CC(=O)c3c(O)cc(O)cc3O2)cc1O` [HESPERETIN], the inhibition at 50 µM is 0%.

Take `COc1cc(O)c2c(=O)cc(C)oc2c1CC=C(C)C` [HETEROPEUCENIN. METHYL ETHER]: the inhibition at 50 µM came out at 1%.

Turning to `Oc1c(Cl)cc(Cl)c(Cl)c1Cc1c(O)c(Cl)cc(Cl)c1Cl` [HEXACHLOROPHENE], the inhibition at 50 µM stood at 112%.

Regarding `C[N+](C)(C)CCCCCC[N+](C)(C)C` [HEXAMETHONIUM BROMIDE], the inhibition at 50 µM was 2%.

Still in this experiment, the particulars now being: 50 µM.
For `NC(=O)CC[C@H](N)C(=O)O` [GLUTAMINE (L)], the “Inhibition (%)” value stood at 0.

For `O=c1c(O)c(-c2ccc(O)c(O)c2)oc2c(O[C@@H]3O[C@H](CO)[C@@H](O)[C@H](O)[C@H]3O)c(O)cc(O)c12` [GOSSYPIN], the “Inhibition (%)” value was 57.

Turning to `C[N+]1(C)CCOC(O)(c2ccc(-c3ccc(C4(O)C[N+](C)(C)CCO4)cc3)cc2)C1.[Br-].[Br-]` (stereo not shown) [HEMICHOLINIUM BROMIDE], the “Inhibition (%)” value is listed as 1.

As to `COc1ccc([C@@H]2CC(=O)c3c(O)cc(O[C@@H]4O[C@H](CO[C@@H]5O[C@@H](C)[C@H](O)[C@@H](O)[C@H]5O)[C@@H](O)[C@H](O)[C@H]4O)cc3O2)cc1O` [HESPERIDIN], the “Inhibition (%)” value worked out at 1.
